From patent publication US11337420B2, “Cryopreservation of juvenile stages of barnacles” (Planktonic AS, priority 2016, dated 2022)
Where two headings read alike, the source gives them in different places.

Columns and labels:
[1] = system: Barnacle nauplii stage I and II from Semibalanus balanoides; assay: Cryopreservation, thawing and revitalization of nauplii, viability check (different cryoprotectants, volume ratios, equilibrium periods); format: in vivo
Protocol: (§1) Barnacle nauplii (Semibalanus balanoides or Balanus crenatus) were drained and concentrated (10% dry weight) and mixed 1:1 with a cryoprotectant (on ice). The mixture was filled, sealed and equilibrated in a pouch (600 gram consisting of 300 ml cryoprotectant and 300 ml barnacles) for 30 minutes at 5 ° C. before transferring to a controlled freezer. The pouch was put in an aluminum rack, and temperature loggers were put inside the pouch and in the freezer to measure air temperature. Alternatively smaller amount of about 60 g or vials were used in the tests.
(§2) After freezing from 5 to −42 ° C., with a duration of >12 hours using the disclosed method, the pouches were soaked in liquid nitrogen until −196 ° C. were homogenously achieved inside the pouches. The pouches were transferred to cryocontainers (with liquid nitrogen) of 175 liters, and stored for more than 48 hours. To check viability, the pouches were removed from the cryocontainer, crushed to get out the content and thawed in cold seawater (less than 5 ° C.). After 15 minutes, the thawed nauplii were washed on a 100 μm filter to remove the cryoprotectant. Revitalization was performed for >8 hours in an aerated tank with 30 PSU seawater (start temperature 2.5 ° C.).
Barnacle nauplii stage I and II from Semibalanus balanoides were treated with a 6 molar solution of dimethyl sulfoxide (DMSO) as cryoprotectant and 1:1 mixing between cryoprotectant and organisms. Equilibrium was performed for 30 minutes at 3 to 5° C.
Samples of these organisms were cryopreserved in a volume ratio of A) 30% cryoprotectant to 70% organisms (volume/volume) and B) 40% cryoprotectant to 60% organisms (volume/volume). The control was C) 50% cryoprotectant to 50% organisms (volume/volume). All tests were carried out in triplicate.
(1:1 volume ratio with organisms). Thereafter the organisms were cryopreserved by the disclosed method, stored in liquid nitrogen for 48 hours, thawed and revitalized. The barnacle nauplii were analyzed for their vitality using a binocular microscope.

[2] = system: nauplii; conditions: salt in the cryoprotectant solution compared to no salt addition
Description: The final salt concentration of NaCl is thereby preferably between 2.0 to 4.5%, more preferably between 3.0 to 3.8%, most preferred between 3.2 and 3.8%.

[3] = system: aquatic organisms; conditions: aquatic organisms in general; cited from earlier work
[4] = for content of ethylene glycol in drained barnacle nauplii: revitalization in 30 liters of seawater
Description: Immediately after thawing, the nauplii was drained for water and frozen again.
A small piece of frozen material was taken on a filter, and rinsed until it was thawed, and thereafter frozen and analyzed. […] When revitalized, the barnacle nauplii were drained again for seawater, and added 30 liters of seawater.

[5] = system: Barnacle nauplii stage I and II of Semibalanus balanoides
Protocol: Samples were taken out after 0, 1, 2, 4, 8, 12, and 24 hours and the cryoprotectant was washed out to check viability of the nauplii. Levels of viability were identified as 0, 1, 2, 3, 4 and 5. “0” represents no activity (dead nauplii), 1-3 are twitching of appendages less than pre-cryopreserved nauplii, but 3 are close to natural swimming. 4 are swimming as pre-cryopreserved nauplii, and 5 are over-stimulated nauplii.

[6] = system: Barnacle nauplii stage I and II from Semibalanus balanoides or Balanus crenatus; conditions: 7.2 molar solution, 1:1 mixing between cryoprotectant and organisms
Protocol: as §1, §2

[7] = system: nauplii of Balanus amphitrite; conditions: 3 to 4 M, equilibration time up to 2 h; cited from earlier work
[8] = 600 gram sample in 15 liter seawater, after 15 minutes

Q: With `C[S+](C)[O-]` [DMSO, dimethyl sulfoxide] as the molecule, how does the viability after thawing ([1]; 6 molar solution, 1:1 mixing, equilibrium 30 minutes at 3 to 5° C.) read?
A: comparable to barnacle nauplii exposed to ethylene glycol

Q: With `[Cl-].[Na+]` [NaCl] as the molecule, how does the revitalization of nauplii [2] read?
A: improve the revitalization of nauplii compared to no salt addition

Q: What does the source list for `OCCO` [ethylene glycol]?
A: level regarded as non-toxic [3]: ≤ 100 ppm; viability, difference between volume ratios ([1]; 30%, 40% or 50% cryoprotectant to 70%, 60% or 50% organisms (volume/volume), triplicate): no significant between the treatments in terms of viability; vitality, difference between equilibrium periods ([1]; incubated 0, 15, 30, 60 minutes in 7.2 M at 5 ° C., 1:1 volume ratio): No significant differences in vitality; vitality after equilibrium period ([1]; incubated 90 minutes in 7.2 M at 5 ° C., 1:1 volume ratio): less vital organisms than the other treatments; equilibration of cryoprotectant with the organisms ([4]; 7.2 molar solution added to drained material): < 15%; content as share of the added ethylene glycol [4, 8]: < 2%; ethylene glycol concentration in nauplii [4, 8]: about 0.1 M; content of ethylene glycol in drained barnacle nauplii ([4]; after one hour): < 25 ppm; content of ethylene glycol in drained barnacle nauplii ([4]; after two hours, detection level): < 10 ppm; ethylene glycol concentration inside the organisms ([4]; second step: drained, 15 liter of seawater added for washing): < 300 ppm; ethylene glycol content in nauplii ([4]; time zero sample, rinsed until thawed, 7.2 M, volume ratio 1:1): 7400-11000 ppm; individuals showing relatively good swimming behavior ([5]; 7.2 molar ethylene glycol stock solution, on ice, even after 24 hour of exposure): 80-90%; level of viability of recovered nauplii ([5]; 7.2 molar ethylene glycol stock solution, on ice, even after 24 hour of exposure, cryoprotectant washed out): 2-3; harm to nauplii in toxicity test ([5]; equilibrium period of 24 hours with 7.2 M (stock solution) ice cold): does not considerably harm barnacle nauplii; nauplii with natural swimming activity (level 4) after thawing [6]: > 50%; swimming activity level of the remaining nauplii after thawing [6]: 1-3; damage to nauplii [7]: did not cause damage

Q: Which “percentage of viable nauplii after thawing” value ([1]; 40% by volume mixed with 60% by volume seawater, volume ratio 1:1) does the source give for `CC(O)CO` (centres unmarked) [propylene glycol] here?
A: minimal compared to ethylene glycol
